Common to all, as to assay: relative viability (nuclei count vs DMSO), 5 days (fraction); higher = more cells survive
Compound in the experiment “Midostaurin + Phenformin”: CO[C@@H]1[C@H](N(C)C(=O)c2ccccc2)C[C@H]2O[C@]1(C)n1c3ccccc3c3c4c(c5c6ccccc6n2c5c31)C(=O)NC4 [Midostaurin] + N=C(N)NC(=N)NCCc1ccccc1 [Phenformin] (partner 250 µM)
In short, it runs like this:
(§1)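 Lung cancer cell lines in 1536-well plates were dosed by pin tool the day after seeding, either with one drug alone or with a fixed anchor-drug dose plus five library-drug doses (not always all listed) in √10 steps. After 5 days, cells were fixed and their nuclei stained in one step (final 0.05% Triton X-100, 1% formaldehyde, 1 ug/ml Hoechst), then counted on 4× images. Relative viability is the nuclei count in treated wells divided by that in vehicle wells. Values are medians of duplicate plates.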

Compound in experiment [1]: COc1cc(-c2nn([C@H]3CC[C@H](N4CCN(C(C)=O)CC4)CC3)c3ncnc(N)c23)ccc1NC(=O)c1cc2ccccc2n1C + C[C@]1(O)C[C@@H](c2nc(-c3ccc4ccc(-c5ccccc5)nc4c3)c3c(N)nccn32)C1 [Linsitinib] (partner 1 µM)
In short, it runs like this:
as §1

Compound in the experiment “Midostaurin + Luminespib”: CO[C@@H]1[C@H](N(C)C(=O)c2ccccc2)C[C@H]2O[C@]1(C)n1c3ccccc3c3c4c(c5c6ccccc6n2c5c31)C(=O)NC4 [Midostaurin] + CCNC(=O)c1noc(-c2cc(C(C)C)c(O)cc2O)c1-c1ccc(CN2CCOCC2)cc1 [Luminespib] (partner 0.01 µM)
In short, it runs like this: as §1

Compound in the experiment “Midostaurin + Pictilisib”: CO[C@@H]1[C@H](N(C)C(=O)c2ccccc2)C[C@H]2O[C@]1(C)n1c3ccccc3c3c4c(c5c6ccccc6n2c5c31)C(=O)NC4 [Midostaurin] + CS(=O)(=O)N1CCN(Cc2cc3nc(-c4cccc5[nH]ncc45)nc(N4CCOCC4)c3s2)CC1 [Pictilisib] (partner 1 µM)
In short, it runs like this: as §1

Compound in the experiment “Midostaurin + Decitabine”: CO[C@@H]1[C@H](N(C)C(=O)c2ccccc2)C[C@H]2O[C@]1(C)n1c3ccccc3c3c4c(c5c6ccccc6n2c5c31)C(=O)NC4 [Midostaurin] + Nc1ncn([C@H]2C[C@H](O)[C@@H](CO)O2)c(=O)n1 [Decitabine] (partner 2 µM)
In short, it runs like this: as §1

In the case of RERF-LC-KJ, the relative viability with Midostaurin + Phenformin (first compound 0.01 µM) is 0.454; with Midostaurin + Phenformin (first compound 0.03162 µM) it was 0.376; with Midostaurin + Phenformin (first compound 0.1 µM) it was 0.391; with Midostaurin + Phenformin (first compound 0.3162 µM), 0.379; in experiment [1] (first compound 0.0128 µM), 0.895; in experiment [1] (first compound 0.04048 µM), 0.882. Further, the relative viability in experiment [1] (first compound 0.128 µM) stood at 0.878; in experiment [1] (first compound 1.28 µM), 0.793; with Midostaurin + Luminespib (first compound 0.01 µM) it was 1.29; with Midostaurin + Luminespib (first compound 0.03162 µM), 1.49; in the experiment with Midostaurin + Luminespib (first compound 0.1 µM), 1.14; with Midostaurin + Luminespib (first compound 0.3162 µM), 1.17. For the same cell line, the relative viability was 0.501 with Midostaurin + Pictilisib (first compound 0.01 µM); 0.51 in the experiment with Midostaurin + Pictilisib (first compound 0.03162 µM); 0.579 with Midostaurin + Pictilisib (first compound 0.1 µM); 0.46 with Midostaurin + Pictilisib (first compound 0.3162 µM); 0.748 with Midostaurin + Decitabine (first compound 0.01 µM); 0.75 with Midostaurin + Decitabine (first compound 0.03162 µM). Besides, the relative viability is 0.724 with Midostaurin + Decitabine (first compound 0.1 µM) and 0.658 in the experiment with Midostaurin + Decitabine (first compound 0.3162 µM).
Consider A-427, for which the relative viability stood at 0.296 with Midostaurin + Phenformin (first compound 0.01 µM); 0.34 in the experiment with Midostaurin + Phenformin (first compound 0.03162 µM); 0.289 with Midostaurin + Phenformin (first compound 0.1 µM); 0.25 with Midostaurin + Phenformin (first compound 0.3162 µM); 1.16 in experiment [1] (first compound 0.0128 µM); 1.08 in experiment [1] (first compound 0.04048 µM). Further, the relative viability in experiment [1] (first compound 0.128 µM) came to 1.07; in experiment [1] (first compound 1.28 µM), 0.963; with Midostaurin + Luminespib (first compound 0.01 µM) it was 0.869; with Midostaurin + Luminespib (first compound 0.03162 µM), 0.905; with Midostaurin + Luminespib (first compound 0.1 µM) it was 0.753; in the experiment with Midostaurin + Luminespib (first compound 0.3162 µM), 0.953. Besides, the relative viability in the experiment with Midostaurin + Pictilisib (first compound 0.01 µM) amounted to 0.75; with Midostaurin + Pictilisib (first compound 0.03162 µM), 0.614; with Midostaurin + Pictilisib (first compound 0.1 µM), 0.702; in the experiment with Midostaurin + Pictilisib (first compound 0.3162 µM), 0.578; with Midostaurin + Decitabine (first compound 0.01 µM), 0.574; with Midostaurin + Decitabine (first compound 0.03162 µM), 0.6. The relative viability in the experiment with Midostaurin + Decitabine (first compound 0.1 µM) came to 0.529; with Midostaurin + Decitabine (first compound 0.3162 µM), 0.547.
On to NCI-H441, for which the relative viability in the experiment with Midostaurin + Phenformin (first compound 0.01 µM) is 0.914; in the experiment with Midostaurin + Phenformin (first compound 0.03162 µM), 0.773; in the experiment with Midostaurin + Phenformin (first compound 0.1 µM), 0.747; with Midostaurin + Phenformin (first compound 0.3162 µM), 0.768; in experiment [1] (first compound 0.0128 µM), 0.555; in experiment [1] (first compound 0.04048 µM) it was 0.612. Further, the relative viability came out at 0.603 in experiment [1] (first compound 0.128 µM); 0.491 in experiment [1] (first compound 1.28 µM); 0.379 with Midostaurin + Luminespib (first compound 0.01 µM); 0.358 with Midostaurin + Luminespib (first compound 0.03162 µM); 0.429 in the experiment with Midostaurin + Luminespib (first compound 0.1 µM); 0.351 with Midostaurin + Luminespib (first compound 0.3162 µM). The relative viability stood at 0.496 in the experiment with Midostaurin + Pictilisib (first compound 0.01 µM); 0.434 in the experiment with Midostaurin + Pictilisib (first compound 0.03162 µM); 0.488 in the experiment with Midostaurin + Pictilisib (first compound 0.1 µM); 0.512 with Midostaurin + Pictilisib (first compound 0.3162 µM); 0.249 in the experiment with Midostaurin + Decitabine (first compound 0.01 µM); 0.237 with Midostaurin + Decitabine (first compound 0.03162 µM). Further, the relative viability with Midostaurin + Decitabine (first compound 0.1 µM) is 0.221; with Midostaurin + Decitabine (first compound 0.3162 µM) it was 0.23.
As to NCI-H1703, the relative viability in experiment [1] (first compound 0.0128 µM) worked out at 0.984; in experiment [1] (first compound 0.04048 µM), 0.193; in experiment [1] (first compound 0.128 µM), 0.637; in experiment [1] (first compound 1.28 µM), 0.323; with Midostaurin + Pictilisib (first compound 0.01 µM), 0.276; with Midostaurin + Pictilisib (first compound 0.03162 µM), 0.226. Further, the figures for the relative viability in the experiment with Midostaurin + Pictilisib (first compound 0.1 µM) and with Midostaurin + Pictilisib (first compound 0.3162 µM) were 0.245 and 0.197, respectively.
Regarding NCI-H1792, the relative viability in the experiment with Midostaurin + Phenformin (first compound 0.01 µM) is 0.508; with Midostaurin + Phenformin (first compound 0.03162 µM), 0.303; with Midostaurin + Phenformin (first compound 0.1 µM), 0.428; with Midostaurin + Phenformin (first compound 0.3162 µM), 0.309; in experiment [1] (first compound 0.0128 µM), 0.565; in experiment [1] (first compound 0.04048 µM) it was 0.485. Also, the relative viability in experiment [1] (first compound 0.128 µM) was found to be 0.392; in experiment [1] (first compound 1.28 µM), 0.449; with Midostaurin + Luminespib (first compound 0.01 µM), 0.399; in the experiment with Midostaurin + Luminespib (first compound 0.03162 µM), 0.429; with Midostaurin + Luminespib (first compound 0.1 µM), 0.388; with Midostaurin + Luminespib (first compound 0.3162 µM), 0.446. For the same cell line, the relative viability with Midostaurin + Pictilisib (first compound 0.01 µM) is 0.323; with Midostaurin + Pictilisib (first compound 0.03162 µM), 0.25; with Midostaurin + Pictilisib (first compound 0.1 µM), 0.257; with Midostaurin + Pictilisib (first compound 0.3162 µM) it was 0.244; in the experiment with Midostaurin + Decitabine (first compound 0.01 µM), 0.555; with Midostaurin + Decitabine (first compound 0.03162 µM), 0.515. Further, the relative viability in the experiment with Midostaurin + Decitabine (first compound 0.1 µM) was 0.529; in the experiment with Midostaurin + Decitabine (first compound 0.3162 µM), 0.431.
On to Calu-6, for which the relative viability in experiment [1] (first compound 0.0128 µM) was 0.901; in experiment [1] (first compound 0.04048 µM) it was 0.657; in experiment [1] (first compound 0.128 µM), 0.858; in experiment [1] (first compound 1.28 µM) it was 0.785; with Midostaurin + Pictilisib (first compound 0.01 µM), 0.876; with Midostaurin + Pictilisib (first compound 0.03162 µM) it was 0.837. In addition, the relative viability in the experiment with Midostaurin + Pictilisib (first compound 0.1 µM) turned out to be 0.937; with Midostaurin + Pictilisib (first compound 0.3162 µM) it was 0.771.
On to SK-LU-1, for which the relative viability came to 0.521 with Midostaurin + Phenformin (first compound 0.01 µM); 0.54 with Midostaurin + Phenformin (first compound 0.03162 µM); 0.49 in the experiment with Midostaurin + Phenformin (first compound 0.1 µM); 0.421 with Midostaurin + Phenformin (first compound 0.3162 µM); 1.23 in experiment [1] (first compound 0.0128 µM); 1.26 in experiment [1] (first compound 0.04048 µM). In addition, the relative viability in experiment [1] (first compound 0.128 µM) was 0.839; in experiment [1] (first compound 1.28 µM), 0.558; with Midostaurin + Luminespib (first compound 0.01 µM), 0.202; with Midostaurin + Luminespib (first compound 0.03162 µM), 0.199; in the experiment with Midostaurin + Luminespib (first compound 0.1 µM) it was 0.206; in the experiment with Midostaurin + Luminespib (first compound 0.3162 µM) it was 0.194. Moreover, the relative viability was 0.602 in the experiment with Midostaurin + Pictilisib (first compound 0.01 µM); 0.676 with Midostaurin + Pictilisib (first compound 0.03162 µM); 0.56 in the experiment with Midostaurin + Pictilisib (first compound 0.1 µM); 0.572 with Midostaurin + Pictilisib (first compound 0.3162 µM); 0.704 with Midostaurin + Decitabine (first compound 0.01 µM); 0.724 in the experiment with Midostaurin + Decitabine (first compound 0.03162 µM). For the same cell line, the relative viability with Midostaurin + Decitabine (first compound 0.1 µM) amounted to 0.595; with Midostaurin + Decitabine (first compound 0.3162 µM), 0.597.
For PC-3 [JPC-3], the relative viability with Midostaurin + Phenformin (first compound 0.01 µM) was 0.497; in the experiment with Midostaurin + Phenformin (first compound 0.03162 µM) it was 0.474; with Midostaurin + Phenformin (first compound 0.1 µM), 0.491; in the experiment with Midostaurin + Phenformin (first compound 0.3162 µM), 0.517; in experiment [1] (first compound 0.0128 µM) it was 1.02; in experiment [1] (first compound 0.04048 µM), 0.957. Also, the relative viability came out at 0.966 in experiment [1] (first compound 0.128 µM); 0.997 in experiment [1] (first compound 1.28 µM); 0.736 with Midostaurin + Luminespib (first compound 0.01 µM); 0.658 with Midostaurin + Luminespib (first compound 0.03162 µM); 0.667 in the experiment with Midostaurin + Luminespib (first compound 0.1 µM); 0.692 in the experiment with Midostaurin + Luminespib (first compound 0.3162 µM). The relative viability stood at 0.787 in the experiment with Midostaurin + Pictilisib (first compound 0.01 µM); 0.623 with Midostaurin + Pictilisib (first compound 0.03162 µM); 0.785 with Midostaurin + Pictilisib (first compound 0.1 µM); 0.789 with Midostaurin + Pictilisib (first compound 0.3162 µM); 0.703 with Midostaurin + Decitabine (first compound 0.01 µM); 0.815 with Midostaurin + Decitabine (first compound 0.03162 µM). In addition, the relative viability in the experiment with Midostaurin + Decitabine (first compound 0.1 µM) was found to be 0.839; in the experiment with Midostaurin + Decitabine (first compound 0.3162 µM) it was 0.94.

Values taken from the supplement of paper PMC10307832.
